Laboratory results from PMC6923382, “Small molecules that inhibit TNF signalling by stabilising an asymmetric form of the trimer” (Nature Communications, 2019).
Values joined by “and” are separate entries in the source; they are usually repeats but may differ in a detail not shown here. Equal values may be shown once. “Also recorded” adds a separate entry of the source.

Experiments:
[1] = tested on: zymosan-induced neutrophil recruitment; assay: Zymosan induced neutrophil recruitment in vivo; parameters: species or system mouse; settings: for percent over bar (inhibition of zymosan-induced neutrophil recruitment): Zymosan 1 µg per mouse i.p.; for CD45+ GR-1+ cells/mL in the peritoneal cavity: zymosan, individual mice
Protocol: Zymosan (R&D Systems) was administered by intraperitoneal injection at a concentration of 1 µg per mouse in PBS (100 µL). […] Four hours after the zymosan challenge, mice were sacrificed and the peritoneal cavity lavaged with 3 mL of FACS buffer. An aliquot (0.3 mL) of lavage fluid was used to assess the number of CD45^+GR1^+ cells by flow cytometry. Briefly, the cells were treated with ACK lysis buffer, washed and suspended in FACS buffer prior to staining with FITC anti-mouse CD45 and PE anti-mouse GR1 (BD Biosciences). Data are shown as mean ± standard error of the number of CD45^+GR-1^+ cells. Statistical significance (*p < 0.05, **p < 0.01, ***p < 0.001 and ****p < 0.0001) was determined using one-way ANOVA with Dunnett’s multiple comparison test.

[2] = molecular target: TNF (Homo sapiens, UniProt P01375); assay: TNF reporter gene assay HEK-293, human TNF; type: cell-based; parameters: stabilise an asymmetrical form of the soluble TNF trimer
Protocol: Stimulation of HEK-293 cells by TNF leads to activation of the NF-κB pathway. The HEK-Blue^TM CD40L SEAP (secreted embryonic alkaline phosphatase) reporter cell line used to determine TNF activity (InvivoGen, #hkb-CD40, cells were described as mycoplasma free when purchased and were tested using Mycoalert [Lonza] after each batch of assay vial preparation). […] Cells were added to the compound/stimulus mixture and further incubated for 18 h. SEAP was measured using the colorimetric substrate HEK-Blue Detect^TM or QUANTI-Blue^TM from InvivoGen. […] The IC50 was determined as the point of inflexion between the fitted minimum and maximum of the compound dose response curve, calculated using 4PL fitted curve. Mean IC50s are reported as a mean of at least two experiments.

[3] = molecular target: T1, mouse TNF (Mus musculus, UniProt P06804); assay: TNF L929 cytotoxicity assay, mouse TNF; type: cell-based; settings: for Luminescence units: Mouse TNF, L929
T1 construct: stabilise an asymmetrical form of the soluble TNF trimer
T1 sequence (P06804 80-235 limits assumed): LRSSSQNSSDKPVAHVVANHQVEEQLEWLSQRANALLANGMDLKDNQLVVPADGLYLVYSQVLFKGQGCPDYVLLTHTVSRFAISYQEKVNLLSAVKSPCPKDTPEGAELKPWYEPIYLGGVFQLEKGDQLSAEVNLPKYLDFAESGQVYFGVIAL
Protocol: TNF (human or mouse) kills L929 cells which have been compromised by incubation with a sub-lethal concentration of actinomycin D, and this effect is inhibited with TNF biologics. Compounds were titrated in DMSO, and then pre-incubated with human or mouse TNF for 1 h. L929 cells (ECACC, #85011425) in media containing actinomycin D (2 µg/mL) were added to the TNF inhibitor mixture and incubated for 18 h. L929 cytotoxicity was measured by the addition of CellTitreGlo (Promega). Luminescence was measured after an incubation of at least 20 min in the dark. Percentage inhibition was calculated between unstimulated wells (maximum signal), and wells with TNF, DMSO and actinomycin D (minimum signal). The IC50 was calculated as the point of inflexion for a 4PL fitted curve. Mean IC50s are reported as a mean of at least two experiments. Cells were described as mycoplasma-free when purchased and were tested using Mycoalert (Lonza) after each batch of assay vial preparation.

[4] = tested on: human TNF superfamily; assay: Thermal denaturation, human TNF superfamily; type: binding; settings: 100 µM compound, 0.1 mg/mL sample; single experiment
Protocol: A fluorescence probed thermal denaturation assay was performed to assess the effect of the compounds on the thermal stability of TNF (or other members of the TNF family) as a measure of compound binding. The reaction mixture contained 5 µL of 30× SYPRO® Orange dye (Invitrogen) and 5 µL of TNF (at 1 mg/mL), 37.5 μL PBS, pH 7.4 and 2.5 μL of compound (at 2 mM in DMSO). The mixture (10 µL) was dispensed in quadruplicate into a 384 PCR optical well plate and was run on a 7900HT Fast Real-Time PCR System ([…]). The PCR System heating device was set at 20 °C to 99 °C with a ramp rate of 1.1 °C min^−1; fluorescence changes in the wells were monitored by a CCD device. The fluorescence intensity increase was plotted as a function of temperature and the Tm calculated as the midpoint of this denaturation curve (determined as the point of inflection).
Compound based thermal stability increase (oC)
100 µM compound 0.1 mg/mL sample […]
compared to human TNF. Human proteins were provided through a collaboration with Beryllium. Data from a single experiment. […]
compared to mouse TNF. Mouse proteins were purchased from R&D Systems. (Note: No Tm for Lymphotoxin (LTa) was detected in this assay making a change in Tm unmeasurable).
Data from a single experiment.
(also on this page, place not known: 16.0Thermal 10Thermal stability difference (oC) stability increase (oC))

[5] = tested on: Balb/c mice (CAIA model); assay: Collagen antibody induced arthritis (CAIA) model; type: in vivo, mouse; parameters: key to Daily arthritis score: 0 = no arthritis, 3 = wrist/ankle, pad and digits affected; settings: Ab501 i.v. then s.c.; for Daily arthritis score: individual mice, UCB-9260 150 mg/kg po bid
Protocol: Ab501 (in-house anti-mouse TNF antibody, […]) was administered intravenously 6 h post-LPS administration followed by three further doses administered subcutaneously at 48-h intervals. Animals were scored for signs of arthritis and weighed daily. The following scoring system was used for signs of arthritis: 0-no arthritis, 1-wrist/ankle affected, 2-wrist/ankle and pad affected and 3-wrist/ankle, pad, and digits affected. Data shown as the mean ± standard error of arthritis clinical score for the treatment group. Statistical significance (*p < 0.05, **p < 0.01) was determined using one-way ANOVA with Dunnett’s multiple comparison test.

Sequence of TNF (P01375 77-233 limits assumed): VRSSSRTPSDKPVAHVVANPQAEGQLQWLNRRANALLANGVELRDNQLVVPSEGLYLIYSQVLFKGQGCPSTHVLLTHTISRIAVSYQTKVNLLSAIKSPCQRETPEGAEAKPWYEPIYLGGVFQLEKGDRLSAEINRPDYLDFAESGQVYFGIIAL

In the case of Cc1ccc(C)c(Cn2c(C(O)c3ccncc3)nc3ccc(-c4cnn(C)c4)cc32)c1 (stereo not shown) [UCB-9260], the “percent over bar (inhibition of zymosan-induced neutrophil recruitment)” value ([1]; 10 mg/kg p.o., 4 hours, mean ± s.e.) is reported as 11±14%, the “CD45+ GR-1+ cells/mL in the peritoneal cavity” value (“CD45+ GR-1+ cells/mL” for short) ([1]; 10mg/kg) is reported as 195599.4 cells/mL and 255505.0 cells/mL and 196418.3 cells/mL and 192743.4 cells/mL and 219374.0 cells/mL and 134444.4 cells/mL and 127176.3 cells/mL and 228610.3 cells/mL and the “percent over bar (inhibition of zymosan-induced neutrophil recruitment)” value ([1]; 30 mg/kg p.o.) is reported as 10±16%. For the same molecule, the “CD45+ GR-1+ cells/mL” value ([1]; 30mg/kg) was 308000.0 cells/mL and 169293.1 cells/mL and 102620.5 cells/mL and 226129.3 cells/mL and 167710.1 cells/mL and 175546.4 cells/mL and 66491.2 cells/mL and 345608.1 cells/mL, the “percent over bar (inhibition of zymosan-induced neutrophil recruitment)” value ([1]; 100 mg/kg p.o.) was 51±10% and the “CD45+ GR-1+ cells/mL” value ([1]; 100mg/kg) was 80477.6 cells/mL and 108548.6 cells/mL and 137240.9 cells/mL and 57696.4 cells/mL and 231185.2 cells/mL and 83347.1 cells/mL and 39698.9 cells/mL and 112119.6 cells/mL. The “percent over bar (inhibition of zymosan-induced neutrophil recruitment)” value ([1]; 300 mg/kg p.o.) was 64±4%, the “CD45+ GR-1+ cells/mL” value ([1]; 300mg/kg) was 106121.8 cells/mL and 78357.0 cells/mL and 70745.1 cells/mL and 93070.9 cells/mL and 117333.3 cells/mL and 57439.3 cells/mL and 69649.3 cells/mL and 44069.8 cells/mL and the IC50 [2] was 202 nM. For the same molecule, the “inhibition of wild-type TNF” value ([2]; 10 pM wild-type TNF, HEK NFκΒ reporter) was “inhibited”, the Luminescence units ([3]; compound -logM 4.6) was 12797 Luminescence units and the Luminescence units ([3]; compound -logM 5.08) was 13525 Luminescence units. The Luminescence units ([3]; compound -logM 5.56) was 13101 Luminescence units, the Luminescence units ([3]; compound -logM 6.03) was 12546 Luminescence units and the Luminescence units ([3]; compound -logM 6.51) was 10886 Luminescence units. It also gave a Luminescence units ([3]; compound -logM 6.99) of 9129 Luminescence units, a Luminescence units ([3]; compound -logM 7.46) of 7403 Luminescence units and a Luminescence units ([3]; compound -logM 7.94) of 7468 Luminescence units. For the same molecule, the Luminescence units ([3]; compound -logM 8.42) was 7718 Luminescence units, the Luminescence units ([3]; compound -logM 8.9) was 5980 Luminescence units and the IC50 ([3]; mouse TNF, mouse L929 cells + actinomycin D, read-out: geometric mean IC50, TNF-dependent cytotoxicity) was 120 nM. For the same molecule, the “change in Tm of other human TNF superfamily members” value [4] was “negligible effect; also recorded: No other protein tested showed a significant change in Tm”, the Daily arthritis score ([5]; Day 0) was 0 and the Daily arthritis score ([5]; Day 1) was 0. For the same molecule, the Daily arthritis score ([5]; Day 2) was 0, the Daily arthritis score ([5]; Day 3, 150 mg/kg) was 0 and 2 and 1 and the Daily arthritis score ([5]; Day 4, 150 mg/kg) was 3 and 0 and 1 and 2. The Daily arthritis score ([5]; Day 5, 150 mg/kg) was 2 and 0 and 1 and 3, the Daily arthritis score ([5]; Day 6, 150 mg/kg) was 1 and 0 and 2 and 3 and the Daily arthritis score ([5]; Day 7, 150 mg/kg) was 0 and 2 and 3 and 1. The “effect on arthritis clinical score” value ([5]; UCB-9260 150 mg/kg po bid from 6 h after LPS) was “significant reduction of the clinical score”.
